What was measured:
Jurkat cells [1] = test: Hoechst 33258 entry by flow cytometry as measure of cell death / pore formation; type: cell-based
Description: (§1) Jurkat cells were incubated with 0.1 ug/mL or 1 ug/mL fimaporfin (TPCS2a, tetraphenyl chlorin disulfonate) for 10 minutes in complete RPMI 1640 medium. Following irradiation, the cells were incubated for 48 hours at 37° C. and 5% CO2, after which several analyses of cell health were performed.
(§2) Blue light irradiation/illumination was performed using LumiSource according to the manufacturer's protocol (PCI Biotech)
Entry of Hoechst 33258 (Thermo Fisher Scientific) into cells was performed as a measure of cell death. When Hoechst 33258 enters cells, it binds to double-stranded DNA generating a strong fluorescent signal. Entry of the stain into the cells requires the presence of pores in the plasma membrane and is a late-stage measure of cell health, i.e. cell death. Hoechst 33258 staining and flow cytometry was performed according to the manufacturer's protocol (Thermo Fisher Scientific).

HEK293T suspension cells = test: Photochemical lysis of suspension cells studied by microscopy; type: cell-based; conditions: 5 μg/mL 10 min + blue light 5 minutes, 2 hours after
Description: HEK293T suspension cells were treated with 5 μg/mL TPCS2a (fimaporfin) or fimaporfin solvent without photosensitiser (“Neg. Ctrl”) in complete DMEM for 10 minutes, followed by blue light illumination for 5 minutes (as described in Example 6). Hoechst 33258 was added to samples 2 minutes prior to imaging. Hoechst 33258 DNA stain is not readily cell penetrable, and therefore stains free DNA or DNA in cells with plasma membrane pores.
Cells were washed in PBS/1% FBS prior to imaging to remove unbound fimaporfin. Cells were imaged by light (Nomarski) microscopy and fimaporfin and Hoechst fluorescence by fluorescence microscopy after 10 minutes (i.e. prior to illumination) and 2 hours after illumination. Imaging was conducted as set out in Example 2.

HEK293T cells [2] = test: Release of AAV2 viral vectors from producer cells (ddPCR of DNase-resistant vg in supernatant); type: cell-based; conditions: adherent HEK293T, TPCS2a 5 μg/mL 10 min, blue light 5 minutes, supernatant 2 hours later
Description: 75-80% confluent HEK293T cells were triple transfected with Adeno-associated virus serotype 2 (AAV)-encoding plasmids (pHelper, AAV2 RepCap, and pscAAV-GFP plasmids) using polyethylenimine (PEI) in 12 well plates, resulting in AAV2 production. For each transfection, plasmids and PEI were added to complete DMEM to a total volume of 640 μL, followed by vortexing for 10 seconds and 15 minutes incubation at room temperature. Medium was removed from the HEK293T cells in 12 well plates, and replaced by the DMEM-plasmid-PEI mixture. Cells were incubated for three days at 37° C. and 5% CO2. Three days after transfection, cells were subjected to treatments (as described below) for 10 minutes in complete DMEM.
Treatments were: • a) Untransfected cells, no further treatment. • b) Transfected cells. Received photosensitiser solvent but no photosensitiser (to control for solvent effect on cell lysis). • c) Transfected cells. Incubated with 5 μg/mL TPCS2a (Fimaporfin) for 10 minutes. […]
Supernatants were harvested 2 hours later and cell debris (if any) was eliminated by centrifugation. DNase-resistant viral genome (vg) from all samples was quantified by digital droplet PCR amplification (Bio-Rad QX600) of DNase-resistant (i.e. viral capsid-encapsulated) DNA using primers targeting inverted terminal repeats. Viral vector yield was expressed as “vg/mL” (AAV vector genomes per millilitre).

Jurkat cells [3] = test: Cell counting (Coulter Counter) as measure of cell growth; type: cell-based; conditions: higher dose (1 ug/mL) vs 0.1 ug/mL at corresponding irradiation times, 48 hours after irradiation
Description: as §1, §2
Cell counting was performed as a measure of cell growth using a Coulter Counter by Beckman Coulter according to the manufacturer's protocol. Counting was performed 48 hours after irradiation.

HEK293 cells [4] = test: DNA leakage by Hoechst 33258 staining and microscopy, photochemical vs detergent lysis; type: cell-based; conditions: HEK293, TPCS2a 5 μg/mL or Tween 20 0.5%, 10 min, irradiation 5 minutes, 2 hours after
Description: HEK293 cells were incubated with 5 μg/mL TPCS2a or 0.5% Tween 20 in complete DMEM for 10 minutes followed by irradiation for 5 minutes. Blue light irradiation/illumination was performed using LumiSource according to the manufacturer's protocol (PCI Biotech). A negative control of complete DMEM containing the TPCS2a solvent was used to control for solvent effects on cell morphology and lysis.
Hoechst 33258 stain was added to samples 2 minutes prior to imaging. Hoechst 33258 staining was performed according to the manufacturer's protocol (Thermo Fisher Scientific). The cells were imaged by light (Nomarski) and fluorescence microscopy prior to irradiation and 2 hours after irradiation. Imaging was performed as described in Example 2. Changes to cellular morphology were analysed visually.

Jurkat cells [5] = test: MTS assay of metabolic activity/viability after TPCS2a and blue light; type: cell-based; conditions: 48 hours incubation
Description: as §1, §2
MTS metabolism was performed as a measure of metabolic activity and performed according the manufacturer's protocol (Promega).

HEK293 cells [6] = test: Cellular morphology after photochemical treatment (Nomarski/fluorescence microscopy); type: cell-based; conditions: HEK293, 5 μg/mL 10 min
Description: HEK293 cells were incubated with 5 μg/mL TPCS2a complete DMEM for 10 minutes, followed by irradiation with blue light for 5 minutes. Blue light irradiation/illumination was performed using LumiSource according to the manufacturer's protocol (PCI Biotech). Cells were imaged by light (Nomarski) and fluorescence microscopy prior to illumination and 2 hours after illumination. Imaging was performed as described in Example 2.

HEK293 cells [7] = test: LDH release assay (leakage of cytosolic material); type: cell-based; conditions: 10 min, assessed after 2 hours
Description: HEK293 cells were incubated with either 0.5 μg/mL TPCS2a or 0.5% Tween 20 in serum-free DMEM. Alternatively, HEK293 cells were incubated with 50 μg/mL TPCS2a in 10% serum supplemented DMEM for 10 minutes. The cells were subsequently irradiated with blue light for 5 minutes or received no irradiation. Blue light irradiation/illumination was performed using LumiSource according to the manufacturer's protocol (PCI Biotech). The negative control (Neg. Ctrl) was either serum-free DMEM or 10% Fetal Bovine Serum (FBS) supplemented DMEM containing the TPCS2a solvent to control for the effect of solvents on LDH leakage. Background absorbance values of the LDH assay was assessed using DMEM with increasing concentrations of FBS at 1%, 5% and 10%.
LDH release was performed as a measure of cell lysis and release of cytosolic material using CyQUANT LDH Cytotoxicity Assay (Thermo Fisher Scientific) according to manufacturer's protocol. Cells were seeded in 48 well plates one day prior to treatments in 400 μL. The following day, treatments were given for 10 minutes at 37° C. 5% CO2, prior to 5 minutes illumination. Plates were subsequently incubated for 2 hours in an incubator (37° C. 5% CO2), then centrifuged for 5 minutes at 400×g, after which 50 μL supernatant from each sample was transferred to a 96 well plate for absorbance measurements according to kit instructions. 490 nm absorbance reflects LDH and 680 nm reflects absorbance background from the instrument. 490 nm absorbance minus 680 nm absorbance is directly proportional to the amount of LDH released into the medium.

HEK293T cells [8] = test: Genomic DNA leakage into supernatant by ddPCR (albumin primers); type: cell-based, human; conditions: TPCS2a 5 μg/mL 10 min, irradiation 5 minutes, 2 hours incubation
Description: 75-80% confluent HEK293T cells were incubated with 5 μg/mL TPCS2a or 0.5% Tween 20 in complete DMEM for 10 minutes followed by irradiation for 5 minutes (where indicated). Blue light irradiation/illumination was performed using LumiSource according to the manufacturer's protocol (PCI Biotech). A negative control of complete DMEM containing the TPCS2a solvent was used to control for solvent effects on cell lysis.
Following irradiation, the cells were incubated for 2 hours at 37° C. and 5% CO2, after which supernatants were collected. Cell debris (if any) was eliminated by centrifugation. Genomic DNA from all samples was quantified by ddPCR (Bio-Rad QX600) using primers targeting human albumin DNA.
Albumin DNA values were normalised to the negative control.

tetraphenyl chlorin disulfonate [TPCS2a]
cell death (Hoechst 33258 staining) (Jurkat cells [1]; TPCS2a 0.1 μg/ml 10 min, various irradiation times): some cell death but only at longer irradiation times
cell death (Hoechst 33258 staining) (Jurkat cells [1]; TPCS2a 1 μg/ml 10 min, after 2 minutes of irradiation): significant cell death
DNA retention (Hoechst 33258 microscopy) (HEK293T suspension cells): DNA is retained within the boundaries of the lysed cells
plasma membrane disruption (HEK293T suspension cells): opens up the plasma membrane
release of AAV2 viral vectors into supernatant (HEK293T cells [2]): releases non-enveloped viral vectors from producer cells
cell density (cell counting) (Jurkat cells [3]): reduced cell density
DNA leakage (Hoechst 33258 microscopy) (HEK293 cells [4]): DNA stays within the boundaries of the cell corpse
cell viability (MTS absorbance) (Jurkat cells [5]; TPCS2a 1 μg/ml 10 min, 4-5 minutes irradiation): total loss of viability
cell viability (MTS absorbance) (Jurkat cells [5]; TPCS2a 0.1 or 1 ug/mL 10 min, blue light 2-5 minutes): reductions in viability
cellular morphology (HEK293 cells [6]; absence of irradiation): do not exhibit changes to their cellular morphology
cellular morphology (HEK293 cells [6]; blue light 5 minutes, 2 hours after illumination): dramatically altered cellular morphology and had shifted to a lytic phenotype
LDH release (HEK293 cells [7]; HEK293, 10% FBS DMEM, TPCS2a 50 μg/mL, blue light 5 minutes): increased significantly
LDH release (HEK293 cells [7]; HEK293, 10% FBS DMEM, TPCS2a 50 μg/mL, no irradiation): comparable levels of LDH release to HEK293 cells treated with a negative control
LDH release (HEK293 cells [7]; HEK293, serum-free DMEM, TPCS2a 0.5 μg/mL or Tween 20 0.5%, blue light 5 minutes): increased significantly
LDH release (HEK293 cells [7]; HEK293, serum-free DMEM, TPCS2a 0.5 μg/mL or Tween 20 0.5%, no irradiation): comparable levels of LDH release to HEK293 cells treated with a negative control
genomic DNA leakage into supernatant (ddPCR) (HEK293T cells [8]): does not cause the leakage of genomic DNA

Reference: patent US20260103730A1, “METHOD FOR RELEASING VIRAL VECTORS” (PCI Biotech AS, priority 2022, published 2026)
